The pIC50 is the negative decadic logarithm of the IC50, by convention in mol/L.

pIC50: −log10 of the molar value. Counter-ions that a name gives are not always drawn. Like-named read-outs stand apart in the source and are kept apart here. Bounds are passed on as bounds.

Data on 31 compounds can be found in patent publication US8815891B2, “Tricyclic derivative or pharmaceutically acceptable salts thereof, preparation method thereof, and pharmaceutical composition containing the same” (Je Il Pharmaceutical Co., Ltd., priority 2008, dated 2014).

This test has as its target PARP-1 enzyme (Homo sapiens (Human), UniProt P09874). As to the kind of experiment: Poly(ADP-ribose)polymerase [PARP-1] enzyme inhibitory activity (Trevigen PARP Assay kit). The class given is biochemical. As for the experimental part:
The activity of the compounds according to the present invention to inhibit the PARP-1 enzyme was examined using a PARP Assay kit (4671-096-K) purchased from Trevigen. The assay was performed following a modified previously reported method by Lee et al [Methods Find, Exp. Clin. Pharmacol., 27, 617-622, 2005].
Histone was coated on 384-well plate, which is a small volume PS plate (784101) of Greiner Bio-One, and left at 25° C. for 2 hours. After that, the plate was rinsed four times with PBS (7.5 mM Na2HPO4, 2.5 mM NaH2PO4, 145 mM NaCl, pH 7.4), and in order to prevent non-specific reaction, the Strep-diluent (provided from kit of Trevigen) was added and left at 25° C. for one hour. After one hour, the plate was again rinsed with PBS four times, and the compounds of the Examples in various concentrations were put into reactant containing PARP-1 enzyme (0.12 unit/well), 2×PARP cocktail (1.95 mM NAD^+, 50 uM biotinylated NAD^+, and activated DNA in 50 mM Tris pH 8.0, 25 mM MgCl2) and allowed to react at 25° C. for 30 minutes. After 30 minutes, each well was rinsed with PBS four times, and in order to measure the amount of rybosylation by the PARP enzyme, strepavidin-linked peroxidase (Strep-HRP, 1:1000 diluted) was added and allowed to react at 37° C. for 30 minutes. The plate was rinsed with PBS four times, and TACS-Sapphire substrate was put and allowed to react at 25° C. for 10 minutes so that color reaction occurred. Finally, the reaction was terminated by the addition of 0.2 N HCl. The amount of histone ribosylation formed by PARP-1 enzyme was quantified at 450 nm using Wallac EnVision™ (PerkinElmer Oy, Turku, Finland).

The mark [1] stands for this setting: read-out: PARP-1 Inhibitory activity IC50.
[2] abbreviates: PARP-1 enzyme, histone ribosylation, 450 nm, read-out: PARP-1 Inhibitory activity IC50.

PARP-1 enzyme, sequence (P09874 whole entry): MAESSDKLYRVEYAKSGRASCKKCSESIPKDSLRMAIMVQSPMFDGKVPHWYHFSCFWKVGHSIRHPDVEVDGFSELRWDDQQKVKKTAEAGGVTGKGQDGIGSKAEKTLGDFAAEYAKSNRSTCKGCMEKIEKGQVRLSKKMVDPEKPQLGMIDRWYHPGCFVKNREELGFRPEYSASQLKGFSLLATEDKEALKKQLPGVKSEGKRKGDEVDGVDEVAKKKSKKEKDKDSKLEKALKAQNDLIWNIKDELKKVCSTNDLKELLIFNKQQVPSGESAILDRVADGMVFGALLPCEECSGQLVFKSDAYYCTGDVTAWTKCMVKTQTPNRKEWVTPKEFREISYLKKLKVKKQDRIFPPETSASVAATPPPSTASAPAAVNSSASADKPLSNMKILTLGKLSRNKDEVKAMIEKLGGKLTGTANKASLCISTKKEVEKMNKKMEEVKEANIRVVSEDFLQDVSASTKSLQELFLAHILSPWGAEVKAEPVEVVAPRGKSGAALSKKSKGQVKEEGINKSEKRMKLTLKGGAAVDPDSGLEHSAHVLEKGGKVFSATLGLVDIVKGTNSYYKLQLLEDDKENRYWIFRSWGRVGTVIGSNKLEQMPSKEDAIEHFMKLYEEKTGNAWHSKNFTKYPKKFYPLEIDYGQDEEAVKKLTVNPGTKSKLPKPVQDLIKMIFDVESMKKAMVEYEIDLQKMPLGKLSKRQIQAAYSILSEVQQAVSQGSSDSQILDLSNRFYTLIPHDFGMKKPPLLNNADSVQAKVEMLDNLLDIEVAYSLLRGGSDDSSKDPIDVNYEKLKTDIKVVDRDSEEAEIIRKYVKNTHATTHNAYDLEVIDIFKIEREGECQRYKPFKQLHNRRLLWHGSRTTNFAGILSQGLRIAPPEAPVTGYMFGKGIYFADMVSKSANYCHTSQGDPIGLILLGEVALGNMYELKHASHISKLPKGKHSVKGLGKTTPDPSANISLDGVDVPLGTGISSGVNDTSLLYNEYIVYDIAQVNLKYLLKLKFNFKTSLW

Consider `CC(C)NCc1ccc2c3c(c(=O)[nH]c2c1)CCCN3` [Example 45, 8-[(Isopropylamino)methyl]-1,2,3,4-tetrahydrobenzo[h][1,6]naphthyridine-5(6H)-one dihydrochloride], for which the pIC50 under setting [1] is 6.59.

`CCCNCc1ccc2c3c(c(=O)[nH]c2c1)CCCN3` [Example 46, 8-[(Propylamino)methyl]-1,2,3,4-tetrahydrobenzo[h][1,6]naphthyridine-5(6H)-one dihydrochloride]: under setting [1], the pIC50 was 6.23. For `O=c1[nH]c2cc(CN3CCOCC3)ccc2c2c1CCCN2` [Example 49, 8-(Morpholinomethyl)-1,2,3,4-tetrahydrobenzo[h][1,6]naphthyridine-5(6H)-one dihydrochloride], the pIC50 under setting [1] is 6.21. `CN(C)Cc1ccc2[nH]c(=O)c3c(c2c1)NCCC3` [Example 50, 9-[(Dimethylamino)methyl]-1,2,3,4-tetrahydrobenzo[h][1,6]naphthyridine-5(6H)-one dihydrochloride]: the pIC50 under setting [1] was 6.49. As to `CN(Cc1ccccc1)Cc1ccc2c3c(c(=O)[nH]c2c1)CCCN3` [Example 51, 8-{[Benzyl(methyl)amino]methyl}-1,2,3,4-tetrahydrobenzo[h][1,6]naphthyridine-5(6H)-one dihydrochloride], the pIC50 under setting [1] was 6.03. On to `CN(C)CCN(C)Cc1ccc2c3c(c(=O)[nH]c2c1)CCCN3` [Example 54, 8-{[(2-(Dimethylaminoethyl)(methyl)amino]methyl}-1,2,3,4-tetrahydrobenzo[h][1,6]naphthyridine-5(6H)-one trihydrochloride], for which the pIC50 under setting [2] is 6.03. As for `CN1CCN(Cc2ccc3c4c(c(=O)[nH]c3c2)CCCN4)CC1` [Example 55, 8-[(4-Methylpiperazine-1-yl)methyl]-1,2,3,4-tetrahydrobenzo[h][1,6]naphthyridine-5(6H)-one trihydrochloride], the pIC50 under setting [1] was 5.76.

Consider `CCOC(=O)CCN(C)Cc1ccc2c3c(c(=O)[nH]c2c1)CCCN3` [Example 57, Ethyl-3-{methyl[(5-oxo-1,2,3,4,5,6-hexahydrobenzo[h][1,6]naphthyridine-8-yl)methyl]amino}propanoate dihydrochloride], for which the pIC50 under setting [1] is 6.32. Consider `CN(CCC(=O)O)Cc1ccc2c3c(c(=O)[nH]c2c1)CCCN3` [Example 58, 3-{Methyl[(5-oxo-1,2,3,4,5,6-hexahydrobenzo[h][1,6]naphthyridine-8-yl)methyl]amino}propanoic acid dihydrochloride], for which, under setting [1], the pIC50 was 6.04.

Regarding `CC(C)N(C)Cc1ccc2c3c(c(=O)[nH]c2c1)CCCN3` [Example 59, 8-{[Isopropyl(methyl)amino]methyl}-1,2,3,4-tetrahydrobenzo[h][1,6]naphthyridine-5(6H)-one dihydrochloride], under setting [1], the pIC50 was 6.72. Take `COCCN(C)Cc1ccc2c3c(c(=O)[nH]c2c1)CCCN3` [Example 60, 8-{[(2-Methoxyethyl)(methyl)amino]methyl}-1,2,3,4-tetrahydrobenzo[h][1,6]naphthyridine-5(6H)-one dihydrochloride]: the pIC50 under setting [1] was 6.92.

On to `O=c1[nH]c2cc(CNCC(F)(F)F)ccc2c2c1CCCN2` [Example 62, 8-[(2,2,2-Trifuloroethylamino)methyl]-1,2,3,4-tetrahydrobenzo[h][1,6]naphthyridine-5(6H)-one dihydrochloride], for which the pIC50 under setting [2] is below 5.40. On to `N#CCNCc1ccc2c3c(c(=O)[nH]c2c1)CCCN3` [Example 63, 2-[(5-Oxo-1,2,3,4,5,6-hexahydrobenzo[h][1,6]naphthyridine-8-yl)methylamino]acetonitrile dihydrochloride], for which, under setting [1], the negative logarithm of the IC50 (pIC50) is 5.99. Regarding `O=c1[nH]c2cc(Cn3ccnc3)ccc2c2c1CCCN2` [Example 64, 8-[(1H-Imidazole-1-yl)methyl]-1,2,3,4-tetrahydrobenzo[h][1,6]naphthyridine-5(6H)-one hydrochloride], the pIC50 under setting [2] was 6.27. As to `O=c1[nH]c2cc(Cn3cccc3)ccc2c2c1CCCN2` [Example 65, 8-[(1H-Pyrrole-1-yl)methyl]-1,2,3,4-tetrahydrobenzo[h][1,6]naphthyridine-5(6H)-one hydrochloride], the pIC50 under setting [2] is 5.81. Regarding `O=c1[nH]c2cc(CN3CCCC3)ccc2c2c1CCCN2` [Example 67, 8-(Pyrrolidine-1-ylmethyl)-1,2,3,4-tetrahydrobenzo[h][1,6]naphthyridine-5(6H)-one dihydrochloride], the negative-log IC50 (pIC50) by setting is: under setting [2], above 6.00; (dihydrochloride, read-out: PARP-1 Inhibitory activity IC50) 6.12. With `CCN(CC)Cc1ccc2c3c(c(=O)[nH]c2c1)CCCN3C` [Example 68, 8-[(Diethylamino)methyl]-1-methyl-1,2,3,4-tetrahydrobenzo[h][1,6]naphthyridine-5(6H)-one dihydrochloride], the pIC50 under setting [1] was 5.92. As to `CN1CCCc2c1c1ccc(CN3CCCCC3)cc1[nH]c2=O` [Example 69, 1-Methyl-8-(piperidine-1-ylmethyl)-1,2,3,4-tetrahydrobenzo[h][1,6]naphthyridine-5(6H)-one dihydrochloride], the pIC50 under setting [2] is below 5.40. Turning to `CN1CCCc2c1c1ccc(CN3CCOCC3)cc1[nH]c2=O` [Example 70, 1-Methyl-8-(morpholinomethyl)-1,2,3,4-tetrahydrobenzo[h][1,6]naphthyridine-5(6H)-one dihydrochloride], under setting [1], the pIC50 is 5.96. As to `CCN(C)Cc1ccc2c3c(c(=O)[nH]c2c1)CCCN3C` [Example 71, 8-{[Ethyl(methyl)amino]methyl}-1-methyl-1,2,3,4-tetrahydrobenzo[h][1,6]naphthyridine-5(6H)-one dihydrochloride], the pIC50 under setting [1] is 5.52.

Consider `CCNCc1cc(OC)c2c3c(c(=O)[nH]c2c1)CCCN3` [Example 75, 8-[(Ethylamino)methyl]-10-methoxy-1,2,3,4-tetrahydrobenzo[h][1,6]naphthyridine-5(6H)-one dihydrochloride], for which the pIC50 under setting [1] was 7.30. Consider `CCN(C)Cc1cc(OC)c2c3c(c(=O)[nH]c2c1)CCCN3` [Example 76, 8-{[Ethyl(methyl)amino]methyl}-10-methoxy-1,2,3,4-tetrahydrobenzo[h][1,6]naphthyridine-5(6H)-one], for which the pIC50 under setting [2] is 7.30. Take `COc1cc(CN2CCCC2)cc2[nH]c(=O)c3c(c12)NCCC3` [Example 77, 10-Methoxy-8-(pyrrolidine-1-ylmethyl)-1,2,3,4-tetrahydrobenzo[h][1,6]naphthyridine-5(6H)-one dihydrochloride]: the pIC50 under setting [1] was 7.30. For `COc1cc(CN2CCC(=O)CC2)cc2[nH]c(=O)c3c(c12)NCCC3` [Example 78, 10-Methoxy-8-[(4-oxopiperidine-1-yl)methyl]-1,2,3,4-tetrahydrobenzo[h][1,6]naphthyridine-5(6H)-one dihydrochloride], the pIC50 under setting [1] is 6.96. `COc1cc(CN2CCC(=NO)CC2)cc2[nH]c(=O)c3c(c12)NCCC3` [Example 79, 8-{[4-(Hydroxyimino)piperidine-1-yl]methyl}-10-methoxy-1,2,3,4-tetrahydrobenzo[h][1,6]naphthyridine-5(6H)-one trihydrochloride] showed a pIC50 of 6.74. In the case of `CON=C1CCN(Cc2cc(OC)c3c4c(c(=O)[nH]c3c2)CCCN4)CC1` [Example 80, 10-Methoxy-8-[(4-(methoxyimino)piperidine-1-yl)methyl]-1,2,3,4-tetrahydrobenzo[h][1,6]naphthyridine-5(6H)-one trihydrochloride], under setting [1], the pIC50 was 6.85. As to `COCCN(C)Cc1cc(OC)c2c3c(c(=O)[nH]c2c1)CCCN3` [Example 81, 10-Methoxy-8-{[(2-methoxyethyl)(methyl)amino]methyl}-1,2,3,4-tetrahydrobenzo[h][1,6]naphthyridine-5(6H)-one dihydrochloride], under setting [1], the pIC50 was 6.96. Take `COc1cc(CN2CC=CC2)cc2[nH]c(=O)c3c(c12)NCCC3` [Example 82, 8-[(2,5-Dihydro-1H-pyrrole-1-yl)methyl]-10-methoxy-1,2,3,4-tetrahydrobenzo[h][1,6]naphthyridine-5(6H)-one dihydrochloride]: under setting [1], the pIC50 was 7.22. For the compound `COc1cc(CN(C)CCOC(C)C)cc2[nH]c(=O)c3c(c12)NCCC3` [Example 83, 8-{[(2-Isopropoxyethyl)(methyl)amino]methyl}-10-methoxy-1,2,3,4-tetrahydrobenzo[h][1,6]naphthyridine-5(6H)-one dihydrochloride], under setting [1], the pIC50 is 6.49. For the compound `COc1cc(CN2CCCCC2)cc2[nH]c(=O)c3c(c12)NCCC3` [Example 84, 10-Methoxy-8-(piperidine-1-ylmethyl)-1,2,3,4-tetrahydrobenzo[h][1,6]naphthyridine-5(6H)-one dihydrochloride], the pIC50 under setting [1] is 6.82. As for `COc1cc(CN(C)CCCl)cc2[nH]c(=O)c3c(c12)NCCC3` [Example 85, 8-{[(2-Chloroethyl)(methyl)amino]methyl}-10-methoxy-1,2,3,4-tetrahydrobenzo[h][1,6]naphthyridine-5(6H)-one dihydrochloride], the pIC50 under setting [2] is 6.74.
